Measurements published in patent US20250057859A1, “CANNABICHROMENEQUINONE AND ANALOGUES THEREOF, AND METHOD OF USING COMPOSITIONS THEREOF AS ANTI-INFLAMMATORY AGENTS” (Juva Life, Inc., priority 2021, published 2025).
Like-named read-outs stand apart in the source and are kept apart here.

How the values were obtained:
[1] = test system: IFN gamma; test: IFN gamma secretion assay in human PBMCs (PHA-M-stimulated, ELISA); assay type: cell-based; details: PBMC, PHA-M 10 ug/mL 40 hr, read-out: IFNγ inhibitory activity IC50
Method: Fetal bovine serum (FBS) was obtained from ThermoFisher (Cat #16000044). • Other reagents: 96well TC plates were obtained from ThermoFisher (Cat #07-2000-90).
IFN-gamma was assessed using a standard ELISA protocol. Cryopreserved PBMCs were thawed in a water bath and transferred to 50 mL polypropylene tubes. The cells were washed two times with 25 mL of RPMI medium supplemented with 5% of regular FBS and re-suspended at a density of 1.5^10^6 cells/mL. The cells were plated into 96 well TC late (100 uL/well). Serially diluted compound was added to the cells in duplicate wells for each concentration. Control wells received DMSO only (0.3% final). The cells were pre-incubated with compound for 2 hr. After pre-incubation, the cells were stimulated by PHA-M (10 ug/mL) for 40 hr. Control samples with and without PHA-M in the absence of compound were assembled in each test plate. IFNg was detected in media supernatants by using a sandwich anti-IFNg ELISA kit (BD Biosciences) according to protocol provided by the manufacturer. ELISA readout (optical density at 450 nm) is commensurable with the amount of IFNg produced by the cells. Assay window was determined in each experiment by comparing average OD450 values in stimulated and un-stimulated samples in the absence of compound. ELISA calibration was performed in each detection plate using serially diluted recombinant human IFN gamma, to ensure that OD450 values for all test samples were within linear range of detection.%-Inhibition by compound was calculated using following equation:
[formula] • where OD450100% is optical density in control samples stimulated with PHA-M without compound, OD4500% is optical density in unstimulated control samples, and OD450compound is optical density in a sample stimulated with PHA-M in the presence of compound.
(§1) The calculated %-Inh values were plotted against compound concentration. To determine IC50 values, dose-response curves were fitted by a 4-parameter sigmoid inhibition model using XLFit® software (IDBS).

[2] = biological target: T1, recombinant human LOX-5 (Homo sapiens, UniProt P09917); test: Biochemical LOX-5 assay
T1 construct: expressed in insect cells (Amino Acids 1-674) was obtained from Cayman; purchased Cayman 60402; host or cells: insect cells
T1 sequence (P09917 1-674): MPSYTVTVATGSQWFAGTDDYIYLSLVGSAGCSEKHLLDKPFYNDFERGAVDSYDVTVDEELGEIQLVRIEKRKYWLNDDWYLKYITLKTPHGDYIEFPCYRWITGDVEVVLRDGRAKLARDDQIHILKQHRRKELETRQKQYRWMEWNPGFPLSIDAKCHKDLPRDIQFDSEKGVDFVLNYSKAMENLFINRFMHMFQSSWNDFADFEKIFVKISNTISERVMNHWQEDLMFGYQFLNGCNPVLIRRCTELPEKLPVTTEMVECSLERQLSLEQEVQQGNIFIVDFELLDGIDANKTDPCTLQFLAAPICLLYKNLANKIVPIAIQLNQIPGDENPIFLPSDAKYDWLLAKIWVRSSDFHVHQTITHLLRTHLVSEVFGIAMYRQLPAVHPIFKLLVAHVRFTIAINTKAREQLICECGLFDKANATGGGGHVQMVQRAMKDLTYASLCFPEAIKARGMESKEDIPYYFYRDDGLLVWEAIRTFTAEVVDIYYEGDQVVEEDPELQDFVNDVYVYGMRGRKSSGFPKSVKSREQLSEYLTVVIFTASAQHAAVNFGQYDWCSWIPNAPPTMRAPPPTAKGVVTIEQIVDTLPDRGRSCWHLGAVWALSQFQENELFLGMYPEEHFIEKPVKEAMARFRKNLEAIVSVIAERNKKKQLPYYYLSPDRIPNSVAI
Excerpt: • Active recombinant human LOX-5 protein expressed in insect cells (Amino Acids 1-674) was obtained from Cayman (Cat #60402) • 2′,7′-dichlorodihydrofluorescein diacetate, H2DCFDA, was obtained from Sigma (Cat #96883) • Arachidonic acid, AA, was obtained from Sigma (Cat #A3611) • Other reagents: black 384 well assay plates were obtained from Corning (Cat #3820). • Equipment: Synergy Neo2 Multi-mode plate reader (Biotek), Labcyte 550 acoustic dispenser (Labcyte), Biomek FX robotic dispenser (Beckman Coulter), Sorvall Legend RT centrifuge (Kendro).
The LOX-5 assay was performed in assay buffer comprising: 50 mM Tris (pH 7.5), 2 mM EDTA, 2 mM CaCl2, 3 uM AA, 10 uM ATP, 10 uM H2DCFDA, and recombinant enzyme (50mU per 20 ul reaction, as defined by manufacturer). Serially diluted compounds were prepared in DMSO in Echo qualified 384 well plates. An assay buffer was then prepared without AA and ATP supplemented with 20 uM H2DCFDA. 10 μL of the supplemented buffer was dispensed into control (no enzyme) wells in the black 384well assay plate. Next, a 2× enzyme solution was prepared, comprising 100 mU LOX-5 enzyme in the supplemented assay buffer. 10 uL of the 2× enzyme solution was then dispensed into test wells in the black 384well assay plate. Serially diluted compounds were added to the assay plate by acoustic dispensing (Labcyte 550). Control wells received DMSO only.
Next, the 2× substrate was prepared to comprise 6 uM arachidonic acid and 20 uM ATP in the assay buffer. 10 μL of the 2× substrate was then added to all wells in the assay plate. The plate was incubated for 20 min. The plate was read on Synergy Neo2 in fluorescence mode: excitation 485 nm, emission 530 nm. % inhibition and the resulting IC50 was calculated for the compound using the following equation:
[formula] • where RFU100% is fluorescence in control samples without compound, RFU0% is fluorescence in control samples without LOX-5, and RFUcompound fluorescence in a sample with compound.
as §1

[3] = recombinant enzyme, 3 uM AA, read-out: 5-Lox inhibitory activity IC50

Row | SMILES | IC50 [1] [µM] | IC50 [2, 3] [µM] | IC50 [2] [µM]
1 | CCCCCC1=CC(=O)C2=C(OC(C)(CCC=C(C)C)C=C2)C1=O (stereo not shown) [Formula II] | 0.39 | 0.27 | 
2 | CCCCCc1cc(OC(C)=O)c2c(c1OC(C)=O)OC(C)(CCC=C(C)C)C=C2 (stereo not shown) [Formula XXIII] | 0.48 | 2.71 | 
3 | CCCCCc1cc(O)c2c(c1O)OC(C)(CCC=C(C)C)C=C2 (stereo not shown) [Formula XXII] | 1.97 | 0.25 | 
4 | CCCCCc1cc(OC)c2c(c1OC)OC(C)(CCC=C(C)C)C=C2 (stereo not shown) [Formula XXIV] | 4.2 | > 10 | 
5 | CCCCCC1=C(NCC)C(=O)C2=C(OC(C)(CCC=C(C)C)C=C2)C1=O (stereo not shown) [Formula XXVIII] | > 10 | > 10 | 
6 | CC(C)=CCCC1(C)C=CC2=C(O1)C(=O)c1ccccc1C2=O (stereo not shown) [Formula XXVII] | > 10 |  | > 10
7 | CCCCCC1=CC(=O)C2=C(O[C@](C)(CCC=C(C)C)C=C2)C1=O [Formula XXVI] | 0.31 | 0.23 | 
8 | CCCCCC1=C(NCCC)C(=O)C2=C(OC(C)(CCC=C(C)C)C=C2)C1=O (stereo not shown) [Formula XXV] | > 10 | 1.18 | 
